The source of these data is patent US10030027B2, “Soluble guanylate cyclase stimulators” (MERCK SHARP & DOHME CORP., priority 2015, dated 2018).

The target in one assay is sGC α1/β1 heterodimer (Homo sapiens (Human), UniProt Q02108+Q02153). Briefly: Cell-based sGC functional assay (cyclic GMP assay for sGC activator: CASA assay). The note with it: CHO-K1/sGC cells; for Emax: CHO-K1, activity expressed as percentage of compound A (standard), read-out: % Activation; for EC50: inflection point, 4P fit, read-out: IP. The procedure, abridged:
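CHO-K1 cells stably expressing sGC α1/β1 were pre-incubated with or without 1 μM DETA-NO (30 min, 25 °C), then exposed to compounds for 1 hr at 37 °C with 0.5 mM IBMX. Intracellular cGMP was read by HTRF and expressed as a percentage of a reference heme-dependent activator's maximum.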

In assay [1] the target is human recombinant sGC enzyme (Homo sapiens (Human), UniProt Q02108+Q02153). Briefly: Size Exclusion Chromatography (SEC) competition binding assay using [3H] Ex-77B as the radioligand. The note with it: [3H] Ex-77B radioligand, 24 hours at 37° C. The essentials: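 Recombinant human sGC binding measured by competition against tritiated Ex-77B radioligand, with non-specific binding defined by 1 μM unlabeled Ex-77B.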

Turning to `Cc1ccnc(Cn2nc(-c3nc(N)c4c(n3)NC(=O)[C@@]4(C)c3nc(CC(C)(C)C(=O)O)cs3)c3ccc(Cl)cc32)c1F` [Example 216A, (S)-3-(2-{4-amino-2-[6-chloro-1-((3-fluoro-4-methyl-pyridin-2-yl)methyl)-1H-indazol-3-yl]-5-methyl-6-oxo-6,7-dihydro-5H-pyrrolo[2,3-d]pyrimidin-5-yl} 1,3-thiazol-4-yl)-2,2-dimethyl-propanoic acid], on sGC α1/β1 heterodimer, the Emax stood at 132% and the EC50 was 678 nM. Moreover, the Ki in assay [1] was determined as 0.11 nM.
On to `CC1(c2ccc(/C=C/C(=O)O)cc2)C(=O)Nc2nc(-c3nn(Cc4ccccc4F)c4ncccc34)nc(N)c21` (stereo not drawn) [Example 217A, (2E)-3-(4-{4-amino-2-[1-(2-fluorobenzyl)-1H-pyrazolo[3,4-b]pyridin-3-yl]-5-methyl-6-oxo-6,7-dihydro-5H-pyrrolo[2,3-d]pyrimidin-5-yl}phenyl)prop-2-enoic acid], for which, at sGC α1/β1 heterodimer, the Emax was found to be 124% and the EC50 is 1420 nM. Also, the Ki in assay [1] was found to be 0.067 nM.
Regarding `CC1(c2ccc(/C=C/C(=O)O)cc2)C(=O)Nc2nc(-c3nn(Cc4ccccc4F)c4cc(Cl)ccc34)nc(N)c21` (stereo not drawn) [Example 218A, (2E)-3-(4-{4-amino-2-[6-chloro-1-(2-fluorobenzyl)-1H-indazol-3-yl]-5-methyl-6-oxo-6,7-dihydro-5H-pyrrolo[2,3-d]pyrimidin-5-yl}phenyl)prop-2-enoic acid], on sGC α1/β1 heterodimer, the Emax was 103% and the EC50 amounted to 301 nM. In addition, the Ki in assay [1] was 0.057 nM.
As to `CC(C)(Cc1coc(C2(C)C(=O)Nc3nc(-c4nn(Cc5cccc(F)c5)c5ccccc45)nc(N)c32)n1)C(=O)O` (stereo not drawn) [Example 223A, 3-(2-{4-amino-2-[1-(3-fluoro-benzyl)-1H-indazol-3-yl]-5-methyl-6-oxo-6,7-dihydro-5H-pyrrolo[2,3-d]pyrimidin-5-yl}-1,3-oxazol-4-yl)-2,2-dimethyl-propanoic acid], at sGC α1/β1 heterodimer, the Emax was 119% and the EC50 worked out at 210 nM. For the same compound, the Ki in assay [1] stood at 0.05 nM.
Turning to `CC(C)(Cc1csc([C@]2(C)C(=O)Nc3nc(-c4nn(Cc5c(F)ccc(F)c5F)c5ccccc45)nc(N)c32)n1)C(=O)O` [Example 224A, (S)-3-(2-{4-amino-5-methyl-6-oxo-2-[1-(2,3,6-trifluorobenzyl)-1H-indazol-3-yl]-6,7-dihydro-5H-pyrrolo[2,3-d]pyrimidin-5-yl}-1,3-thiazol-4-yl)-2,2-dimethyl-propanoic acid], on sGC α1/β1 heterodimer, the Emax turned out to be 111% and the EC50 was found to be 14 nM. For the same compound, the Ki in assay [1] was found to be 0.067 nM.
The like results for `Cc1cccc(Cn2nc(-c3nc(N)c4c(n3)NC(=O)[C@@]4(C)c3ccc(CCC(=O)O)cc3)c3ccccc32)c1` [Example 225B, (S)-3-(4-{4-amino-5-methyl-2-[1-(3-methylbenzyl)-1H-indazol-3-yl]-6-oxo-6,7-dihydro-5H-pyrrolo[2,3-d]pyrimidin-5-yl}phenyl)propanoic acid] were, in that order, 140%, 460 nM and 0.342 nM.
For the compound `Cc1cccc(Cn2nc(-c3nc(N)c4c(n3)NC(=O)C4(C)c3nc(CC(C)(C)C(=O)O)co3)c3ccccc32)c1` (stereo not drawn) [Example 226A, 3-(2-{4-amino-5-methyl-2-[1-(3-methylbenzyl)-1H-indazol-3-yl]-6-oxo-6,7-dihydro-5H-pyrrolo[2,3-d]pyrimidin-5-yl}-1,3-oxazol-4-yl)-2,2-dimethyl-propanoic acid], at sGC α1/β1 heterodimer, the Emax is 112% and the EC50 was determined as 355 nM. Also, the inhibitory constant (Ki) in assay [1] was 0.176 nM.
With `C[C@@]1(c2ccc(CCC(=O)O)cc2)C(=O)Nc2nc(-c3nn(CC4CCCC4)c4ccccc34)nc(N)c21` [Example 227B, (S)-3-(4-{4-amino-2-[1-(cyclopentyl-methyl)-1H-indazol-3-yl]-5-methyl-6-oxo-6,7-dihydro-5H-pyrrolo[2,3-d]pyrimidin-5-yl}phenyl)propanoic acid], on sGC α1/β1 heterodimer, the Emax was 63.5% and the EC50 is 74 nM. In addition, the Ki in assay [1] stood at 0.146 nM.
Take `CC(C)(Cc1coc(C2(C)C(=O)Nc3nc(-c4nn(CC5CCCCC5)c5ccccc45)nc(N)c32)n1)C(=O)O` (stereo not drawn) [Example 228A, 3-(2-{4-amino-2-[1-(cyclohexyl-methyl)-1H-indazol-3-yl]-5-methyl-6-oxo-6,7-dihydro-5H-pyrrolo[2,3-d]pyrimidin-5-yl}-1,3-oxazol-4-yl)-2,2-dimethyl-propanoic acid]: on sGC α1/β1 heterodimer, the Emax stood at 95% and the EC50 came out at 64 nM. Moreover, in assay [1], the Ki is 0.079 nM.
For the compound `C[C@@]1(c2ccc(CCC(=O)O)cc2)C(=O)Nc2nc(-c3nn(Cc4ncccc4F)c4ccccc34)nc(N)c21` [Example 232B, (S)-3-{4-[4-amino-2-{1-[(3-fluoropyridin-2-yl)methyl]-1H-indazol-3-yl}-5-methyl-6-oxo-6,7-dihydro-5H-pyrrolo[2,3-d]pyrimidin-5-yl]phenyl}propanoic acid], on sGC α1/β1 heterodimer, the Emax was found to be 89.1% and the EC50 was 4150 nM. Moreover, in assay [1], the Ki was 0.085 nM.
The like results for `Cc1cccc(Cn2nc(-c3nc(N)c4c(n3)NC(=O)C4(C)c3nc(CC(C)(C)C(=O)O)co3)c3ccccc32)c1F` (stereo not drawn) [Example 233A, 3-(2-{4-amino-2-[1-(2-fluoro-3-methylbenzyl)-1H-indazol-3-yl]-5-methyl-6-oxo-6,7-dihydro-5H-pyrrolo[2,3-d]pyrimidin-5-yl}-1,3-oxazol-4-yl)-2,2-dimethyl-propanoic acid] were, in that order, 141%, 204 nM and 0.083 nM.
With `CC1(c2nc(C[C@H](N)C(=O)O)cs2)C(=O)Nc2nc(-c3nn(Cc4ccccc4F)c4cc(Cl)ccc34)nc(N)c21` (stereo partly drawn) [Example 234B, (S)-3-(2-{4-Amino-2-[6-chloro-1-(2-fluorobenzyl)-1H-indazol-3-yl]-5-methyl-6-oxo-6,7-dihydro-5H-pyrrolo[2,3-d]pyrimidin-5-yl}-1,3-thiazol-4-yl)-D-alanine], on sGC α1/β1 heterodimer, the Emax worked out at 135% and the EC50 worked out at 265 nM. Also, the Ki in assay [1] came to 0.947 nM.
Regarding `CC(C)(Cc1csc([C@]2(C)C(=O)Nc3nc(-c4nn(Cc5ccccc5F)c5cc(Cl)ccc45)nc(N)c32)n1)c1nn[nH]n1` [Example 238A, (S)-4-amino-2-[6-chloro-1-(2-fluorobenzyl)-1H-indazol-3-yl]-5-methyl-5-{4-[2-methyl-2-(2H-tetrazol-5-yl)propyl]-1,3-thiazol-2-yl}-5,7-dihydro-6H-pyrrolo[2,3-d] pyrimidin-6-one], on sGC α1/β1 heterodimer, the Emax is 99.5% and the EC50 was found to be 609 nM. Besides, the Ki in assay [1] was determined as 0.095 nM.
Take `C[C@@]1(c2ccc(CCc3nn[nH]n3)cc2)C(=O)Nc2nc(-c3nn(Cc4ccccc4F)c4ncccc34)nc(N)c21` [Example 240B, (S)-4-amino-2-[1-(2-fluoro-benzyl)-1H-pyrazolo[3,4-b]pyridin-3-yl]-5-methyl-5-{4-[2-(2H-tetrazol-5-yl)ethyl]phenyl}-5,7-dihydro-6H-pyrrolo[2,3-d] pyrimidin-6-one]: at sGC α1/β1 heterodimer, the Emax amounted to 104% and the EC50 was found to be 749 nM. The Ki in assay [1] came out at 0.075 nM.
